{P} = phosphate
Columns and labels:
p53DD R2F fibroblasts = assay: SA-β-Gal staining, p53DD R2F fibroblasts; format: cell-based, human; conditions: 40 μM, 1 week
Protocol: (§1) FIG. 12a: Immunoblot analysis of p53DD and cdk4^R24C expression. Cells were collected for protein analysis by western blot using 30 μg total protein and probed for total p53 and cdk4. Lanes 1, 2, 3 and 4 contain protein samples from R2F, R2F (p53DD), R2F (cdk4^R24C) and R2F (p53DD/cdk4^R24C) fibroblasts, respective. β-actin was used as a loading control. FIG. 12b: Contribution of p53 and pRb pathways to T-oligo-induced SA-β-Gal activity. R2F fibroblasts and derived transductants were treated with diluent or 40 μM T-oligo for one week and then assayed for SA-β-Gal activity. FIG. 12c: Quantitative analysis of SA-β-Gal positive cells. Cells expressing SA-β-Gal activity were counted and presented as percentage of total cells in the cultures. Averages and standard deviations were calculated from 3 representative fields from each of 3 independent experiments.
R2F newborn dermal fibroblasts and derived p53DD, […] and p53DD/cdk4^R24C transductants (a generous gift from Dr. James G. Rheinwald of Harvard Medical School) lack a functional p53 pathway, pRb pathway, and both pathways respectively.
Cells were treated once with diluent alone, 40 μM T-oligo or 40 μM complementary oligo for 1 week without re-feeding. […]
(§2) Cells were treated with either diluent or 40 μM T-oligo for 1 week and then assessed for SA-β-Gal activity. […]

p53 phosphoserine 37 = assay: Western blot for p53 phosphoserine 37; format: cell-based; conditions: normal neonatal fibroblasts, 40 μM
Protocol: Western blot analysis was performed on normal neonatal cells using a antibody specific for p53 phosphoserine 37 after being treated with either diluent or 40 μM for the indicated times.
Normal neonatal fibroblasts were treated with either diluent or 40 μM (11mer-1) for 4, 6, 8, 19, 24 and 48 hours and then collected for Western blot analysis using an antibody specific for p53 phosphoserine 37. Sham and IR-irradiated (10 Gy) fibroblasts were used used as negative and positive controls, respectively.

R2F fibroblasts = assay: SA-β-Gal staining, R2F fibroblasts; format: cell-based, human; conditions: 40 μM, 1 week
Protocol: as §1
Cells were treated once with diluent alone, 40 μM T-oligo or 40 μM complementary oligo for 1 week without re-feeding. Cells were then fixed for 3-5 minutes in 2% formaldehyde/0.2% glutaraldehyde and incubated at 37° C. […]
as §2

[1] = test system: pRb phosphorylation on serine 780, serine 795 and serine 807/811; assay: Western blot of pRb phosphorylation in HT-1080 cells; format: cell-based, human
Protocol: FIG. 13a: Exposure to T-oligo increases SA-β-Gal activity. HT-1080 cells were treated for 4 days with diluent alone or 40 μM T-oligo or the complementary control oligo, then stained and assayed for SA-β-Gal activity. FIG. 13b: Quantitative analysis of SA-β-Gal positive cells. Cells expressing SA-β-Gal activity were counted and presented as percentage of total cells in the cultures. Averages and standard deviations were calculated from 3 representative fields from each of 3 independent experiments. FIG. 13c: Effect of T-oligo on cell proliferation. Cells were treated for 4 days as in FIG. 12 and assayed for DNA synthesis by BrdU incorporation. FIG. 13d: Quantitative analysis of BrdU incorporation. Dark black nuclei indicate BrdU incorporated into nuclear DNA. BrdU positive cells were calculated and presented as percentage of total cells in the cultures. Averages and standard deviations were calculated from 3 representative fields from each of 3 independent experiments. FIG. 13e: Effect of T-oligo on pRb phosphorylation. Cells were treated as in FIG. 13a and were then collected for protein analysis by western blot using 30 μg total protein and probed for pRb-ser780*, ser795* and ser807/811* (pRb phosphorylated at serine 780, serine 795 and serine 807/811 respectively). […]

In the case of “pGTTAGGGTTAG (DNA, 5' {P}, backbone not given here; listed as Homo sapiens) [Oligonucleotide 11mer-1]”, the SA-β-Gal positive cells (p53DD R2F fibroblasts) is reported as 45±4%, the “p53 serine 37 phosphorylation (band intensity vs diluent)” value (p53 phosphoserine 37; 8 hours) is reported as “detected” and the “p53 serine 37 phosphorylation (band intensity vs diluent)” value (p53 phosphoserine 37; 48 hours) is reported as “very prominent”. The SA-β-Gal positive cells (R2F fibroblasts) was 65±7%, the “state of pRb proteins after removal of oligo” value ([1]; HT-1080, 4 days 40 μM, then fresh medium without oligonucleotide) was “sustained in an active, inhibitory state” and the “pRb phosphorylation on serine 780, serine 795 and serine 807/811” value ([1]; HT-1080 cells, 40 μM, 4 days) was “striking and selective reduction”.

From patent US20060269924A1, “Modulation of telomere-initiated cell signaling” (TRUSTEES OF BOSTON UNIVERSITY, priority 2003, published 2006)
